# Read-outs that look alike come from different tables or passages of the source.
# Key:
# [1] = target: T1, HIV protease (Human immunodeficiency virus type 1 group M subtype B, UniProt P04585); assay: biochemical; set-up: species or system HIV-1
# T1 construct: plasmid containing HIV protease under the control of an inducible T7 promoter; made in house; host or cells: E. coli (inclusion bodies, T7 promoter)
# Experimental: HIV Protease Inhibition Assay—Spectroscopic Method
# Inclusion bodies were solubilized in 8M urea, 50 mM tris pH 8.0. Protease activity was recovered by dilution 20-fold into buffer containing 50 mM sodium acetate pH 5.5, 1 mM EDTA, 10% glycerol and 5% ethylene glycol. Enzyme was used at a final concentration of 1.0-10 ug/ml.
# Stock solutions of 10 mM were prepared in DMSO.
# All further dilutions were done in DMSO.
# [2] = tested on: HIV-1 (RF) in MT-2 cells; assay: microbe, parasite or virus in culture; assay type: cell-based
# Method in brief: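 HIV-1 laboratory strains (RF, MN, IIIB) grown in H9 cells in RPMI 1640 with 5% FCS; infections in MT-2 cells. Viral RNA quantified by hybridization with biotinylated gag/pol capture probes on streptavidin plates and alkaline phosphatase-conjugated reporter probes; BH10 gag-pol in vitro transcripts serve as RNA standards.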
# [3] = Human immunodeficiency virus 1, MT2, Table 1c, read-out: IC90
# [4] = second table headed Table 2A, read-out: Ki
# [5] = Human immunodeficiency virus 1, MT2, Table 2A, read-out: IC90
# [6] = Human immunodeficiency virus 1, MT2, second table headed Table 2A, read-out: IC90
# [7] = Table 1d, upper part, read-out: Ki
# [8] = Human immunodeficiency virus 1, MT2, 24 h, Table 1d, upper part, read-out: IC90
# [9] = Human immunodeficiency virus 1, MT2, Table 1e, read-out: IC90
compound,measurement,setting,value
N#CN=C1N(Cc2ccc(C#N)cc2)C(Cc2ccccc2)C(O)C(O)C(Cc2ccccc2)N1Cc1ccc(C#N)cc1 (stereo not drawn) [Example 1CG],Ki,[1]; Ki,10 to 1000 nM
same,IC90,[2]; [3],< 10 µg/mL
N#CN=C1N(Cc2cccc(C=O)c2)C(Cc2ccccc2)C(O)C(O)C(Cc2ccccc2)N1Cc1cccc(C=O)c1 (stereo not drawn) [Example 1CP],Ki,[1]; Ki,< 10 nM
same,IC90,[2]; [3],< 10 µg/mL
O=C1N(Cc2ccc(F)cc2)C(Cc2ccccc2)C(O)C(O)C(Cc2ccccc2)N1Cc1ccc(F)cc1 (stereo not drawn) [Example 2E],Ki,"[1]; Table 2A, read-out: Ki",< 10 nM
same,Ki,[1]; [4],< 10 nM
same,IC90,[2]; [5],< 10 µg/mL
same,IC90,[2]; [6],< 10 µg/mL
O=C1N(Cc2ccccc2)C(Cc2ccccc2)C(O)C(O)C(Cc2ccccc2)N1CC1CC1 (stereo not drawn) [Example 2F],Ki,"[1]; Table 2A, read-out: Ki",< 10 nM
same,Ki,[1]; [4],< 10 nM
same,IC90,[2]; [5],< 10 µg/mL
same,IC90,[2]; [6],< 10 µg/mL
C=CCN1C(=O)N(CC=C)C(Cc2ccccc2)C(OC(C)=O)C(O)C1Cc1ccccc1 (stereo not drawn) [Example 7A],Ki,[1]; [7],> 1000 nM
same,IC90,[2]; [8],< 10 µg/mL
C=CCN1C(=O)N(CC=C)C(Cc2ccccc2)C2OS(=O)OC2C1Cc1ccccc1 (stereo not drawn) [Example 7C],Ki,[1]; [7],< 10 nM
same,IC90,[2]; [8],< 10 µg/mL
C=CCN1C(=O)N(CCCC)C(Cc2ccccc2)C2OS(=O)OC2C1Cc1ccccc1 (stereo not drawn) [Example 7D],Ki,[1]; [7],< 10 nM
same,IC90,[2]; [8],10 to 100 µg/mL
C=CCN1C(=O)N(CCCC)C(Cc2ccccc2)C2OC(=O)OC2C1Cc1ccccc1 (stereo not drawn) [Example 7E],Ki,[1]; Ki,10 to 1000 nM
same,IC90,[2]; [8],< 10 µg/mL
O=C1N(CC2CC2)C(Cc2ccccc2)C2OS(=O)OC2C(Cc2ccccc2)N1CC1CC1 (stereo not drawn) [Example 7F],Ki,[1]; [7],< 10 nM
same,IC90,[2]; [8],< 10 µg/mL
O=C1OC2C(O1)C(Cc1ccccc1)N(CC1CC1)C(=O)N(CC1CC1)C2Cc1ccccc1 (stereo not drawn) [Example 7G],Ki,[1]; Ki,10 to 1000 nM
same,IC90,[2]; [8],< 10 µg/mL
O=C1N(CC2CC2)C(Cc2ccccc2)C2OC(=S)OC2C(Cc2ccccc2)N1CC1CC1 (stereo not drawn) [Example 7I],Ki,[1]; [7],10 to 1000 nM
same,IC90,[2]; [8],< 10 µg/mL
CC(=O)OC1C(OC(C)=O)C(Cc2ccccc2)N(Cc2ccc3ccccc3c2)C(=O)N(Cc2ccc3ccccc3c2)C1Cc1ccccc1 (stereo not drawn) [Example 7J],Ki,[1]; [7],10 to 1000 nM
same,IC90,[2]; [8],> 100 µg/mL
CC(=O)OC1C(O)C(Cc2ccccc2)N(Cc2ccc3ccccc3c2)C(=O)N(Cc2ccc3ccccc3c2)C1Cc1ccccc1 (stereo not drawn) [Example 7K],Ki,[1]; [7],10 to 1000 nM
same,IC90,[2]; [8],> 100 µg/mL
O=C1OC2C(O1)C(Cc1ccccc1)N(Cc1ccc3ccccc3c1)C(=O)N(Cc1ccc3ccccc3c1)C2Cc1ccccc1 (stereo not drawn) [Example 7L],Ki,[1]; Ki,10 to 1000 nM
same,IC90,[2]; [8],> 100 µg/mL
O=C1N(Cc2ccc3ccccc3c2)C(Cc2ccccc2)C2OS(=O)OC2C(Cc2ccccc2)N1Cc1ccc2ccccc2c1 (stereo not drawn) [Example 7M],Ki,[1]; [7],< 10 nM
same,IC90,[2]; [8],< 10 µg/mL
O=C1N(Cc2ccc3ccccc3c2)C(Cc2ccccc2)C2OC(=S)OC2C(Cc2ccccc2)N1Cc1ccc2ccccc2c1 (stereo not drawn) [Example 7N],Ki,[1]; [7],> 1000 nM
same,IC90,[2]; [8],> 100 µg/mL
O=C1OC2C(OC1=O)C(Cc1ccccc1)N(Cc1ccc3ccccc3c1)C(=O)N(Cc1ccc3ccccc3c1)C2Cc1ccccc1 (stereo not drawn) [Example 7P],Ki,[1]; [7],< 10 nM
same,IC90,[2]; [8],< 10 µg/mL
CC1(C)OC2C(O1)C(Cc1ccccc1)N(Cc1ccc3ccccc3c1)C(=O)N(Cc1ccc3ccccc3c1)C2Cc1ccccc1 (stereo not drawn) [Example 7R],Ki,[1]; [7],> 1000 nM
same,IC90,[2]; [8],> 100 µg/mL
CCCC1(OC)OC2C(O1)C(Cc1ccccc1)N(Cc1ccc3ccccc3c1)C(=O)N(Cc1ccc3ccccc3c1)C2Cc1ccccc1 (stereo not drawn) [Example 7S],Ki,[1]; [7],> 1000 nM
same,IC90,[2]; [8],> 50 µg/mL
O=C1N(Cc2ccc3ccccc3c2)[C@H](Cc2ccccc2)C[C@@H](O)[C@@H](Cc2ccccc2)N1Cc1ccc2ccccc2c1 [Example 7T],Ki,[1]; [7],< 10 nM
same,IC90,[2]; [8],> 100 µg/mL
O=C1N(CC2CC2)[C@H](Cc2ccccc2)C[C@@H](O)[C@@H](Cc2ccccc2)N1CC1CC1 [Example 7U],Ki,[1]; [7],< 10 nM
same,IC90,[2]; [8],< 10 µg/mL
C=CCN1C(=O)N(CC=C)[C@H](Cc2ccccc2)[C@H](O)C1C(F)Cc1ccccc1 (stereo partly drawn) [Example 7W],Ki,"[1]; Table 1e, read-out: Ki",10 to 1000 nM
same,IC90,[2]; [9],10 to 100 µg/mL
[N-]=[N+]=NC(Cc1ccccc1)C1C(O)C(Cc2ccccc2)N(Cc2ccc3ccccc3c2)C(=O)N1Cc1ccc2ccccc2c1 (stereo not drawn) [Example 7Y],Ki,"[1]; Table 1e, read-out: Ki",10 to 1000 nM
same,IC90,[2]; [9],> 100 µg/mL
O=C1N(CC2CC2)C(C(O)Cc2ccccc2)[C@@H](O)[C@@H](Cc2ccccc2)N1CC1CC1 (stereo partly drawn) [Example 7Z],Ki,"[1]; Table 1e, read-out: Ki",10 to 1000 nM
same,IC90,[2]; [9],< 10 µg/mL
CS(=O)(=O)OC1C(O)C(Cc2ccccc2)N(Cc2ccc3ccccc3c2)C(=O)N(Cc2ccc3ccccc3c2)C1Cc1ccccc1 (stereo not drawn) [Example 7o],Ki,[1]; [7],10 to 1000 nM
same,IC90,[2]; [8],< 10 µg/mL
O=C1N(Cc2ccc(CO)cc2)[C@H](CCc2ccccc2)C[C@@H](Cc2ccccc2)N1Cc1ccc(CO)cc1 [Example 8AC],Ki,"[1]; Table 1e, read-out: Ki",10 to 1000 nM
same,IC90,[2]; [9],< 10 µg/mL
O=C1N(Cc2ccccc2)C(CCc2ccccc2)[C@@H](O)[C@@H](Cc2ccccc2)N1Cc1ccccc1 (stereo partly drawn) [Example 8AD],Ki,"[1]; Table 1e, read-out: Ki",10 to 1000 nM
same,IC90,[2]; [9],< 10 µg/mL
N#Cc1cccc(CN2C(=O)N(Cc3cccc(C#N)c3)[C@H](Cc3ccccc3)[C@H](O)C2CCc2ccccc2)c1 (stereo partly drawn) [Example 8AN],Ki,[1]; Ki,> 1000 nM
same,IC90,[2]; Table 1e,+ (+=>100 μg/mL)
NC(=O)c1cccc(CN2C(=O)N(Cc3cccc(C(N)=O)c3)C(Cc3ccccc3)C(O)C2CCc2ccccc2)c1 (stereo not drawn) [Example 8AP],Ki,"[1]; Table 1e, read-out: Ki",> 1000 nM
same,IC90,[2]; [9],> 100 µg/mL
O=C1N(CC2CC2)C(C(F)Cc2ccccc2)[C@@H](O)[C@@H](Cc2ccccc2)N1CC1CC1 (stereo partly drawn) [Example 8B],Ki,"[1]; Table 1e, read-out: Ki",10 to 1000 nM
same,IC90,[2]; [9],< 10 µg/mL
O=C1N(Cc2cccc(O)c2)C(C(F)Cc2ccccc2)[C@@H](O)[C@@H](Cc2ccccc2)N1Cc1cccc(O)c1 (stereo partly drawn) [Example 8F],Ki,[1]; Ki,10 to 1000 nM
same,IC90,[2]; [9],< 10 µg/mL
N#Cc1cccc(CN2C(=O)N(Cc3cccc(C#N)c3)[C@H](Cc3ccccc3)[C@H](O)C2CCc2ccccc2)c1 (stereo partly drawn) [Example 8O],Ki,[1]; Ki,10 to 1000 nM
same,IC90,[2]; Table 1e,+++ (+++=<10 μg/mL)
CC(=O)c1cccc(CN2C(=O)N(Cc3cccc(C(C)=O)c3)[C@H](Cc3ccccc3)[C@H](O)[C@H]2CCc2ccccc2)c1 [Example 8P],Ki,[1]; Ki,< 10 nM
same,IC90,[2]; [9],< 10 µg/mL
O=C1N[C@H](C(O)Cc2ccccc2)[C@@H](O)[C@@H](Cc2ccccc2)N1Cc1ccccc1 (stereo partly drawn) [Example 8Q],Ki,"[1]; Table 1e, read-out: Ki",10 to 1000 nM
same,IC90,[2]; Table 1e,++ (++=10 to 100 μg/mL)
O=C1N(Cc2cccc(CO)c2)C(Cc2ccccc2)C(O)C(C(Br)Cc2ccccc2)N1Cc1cccc(CO)c1 (stereo not drawn) [Example 8V],Ki,"[1]; Table 1e, read-out: Ki",10 to 1000 nM
same,IC90,[2]; [9],< 10 µg/mL
O=C1N(Cc2cccc(-c3noc(C(F)(F)F)n3)c2)[C@H](CCc2ccccc2)[C@@H](O)[C@@H](Cc2ccccc2)N1Cc1cccc(-c2noc(C(F)(F)F)n2)c1 [Example 8X],Ki,"[1]; Table 1e, read-out: Ki",10 to 1000 nM
same,IC90,[2]; [9],10 to 100 µg/mL
O=C1N(Cc2cccc(CO)c2)[C@H](CCc2ccccc2)[C@@H](O)[C@@H](Cc2ccccc2)N1Cc1cccc(CO)c1 [Example 8Z],Ki,[1]; Ki,< 10 nM
same,IC90,[2]; [9],< 10 µg/mL
O=C1NC(Cc2ccccc2)C(O)C2C(Cc3ccccc3)N12 (stereo not drawn) [Example 21A],Ki,"[1]; Table 2j, read-out: Ki",> 1000 nM
same,IC90,[2]; Table 2j,++/+ (The ++/+ is used in the cases where an IC90 was determined to be >50 μg/mL)
CC(=O)OC1C(Cc2ccccc2)N(Cc2ccccc2)C(=O)N2C(Cc3ccccc3)C12 (stereo not drawn) [Example 21B],Ki,"[1]; Table 2j, read-out: Ki",> 1000 nM
same,IC90,[2]; Table 2j,++/+ (The ++/+ is used in the cases where an IC90 was determined to be >50 μg/mL)
O=C1N(Cc2ccccc2)C(Cc2ccccc2)C(OCc2ccccc2)C2C(Cc3ccccc3)N12 (stereo not drawn) [Example 21C],Ki,"[1]; Table 2j, read-out: Ki",10 to 1000 nM
O=C1N(Cc2cccc(O)c2)C(Cc2ccccc2)C(O)C(Cc2ccccc2)N1Cc1cccc(O)c1 (stereo not drawn) [Example 22A],Ki,"[1]; Table 2k, read-out: Ki",10 to 1000 nM

# From patent USRE37781E1, “Substituted cyclic carbonyls and derivatives thereof useful as retroviral protease inhibitors” (DuPont Pharmaceuticals Company, priority 1991, dated 2002)
